{"source": "patent US20250376466A1", "about": "“ESTER COMPOUNDS AND USE THEREOF” (NANJING REJU THERAPEUTICS, CO., LTD., priority 2022, published 2025)", "key": {"osteoarthritis": {"test_system": "osteoarthritis", "test": "Osteoarthritis animal model", "format": "in vivo, mice", "conditions": "intra-articular injection; FIG. 7", "protocol": "In this example, the efficacy of the compounds of the present disclosure was tested on osteoarthritis in an osteoarthritis animal model.\nThe osteoarthritis animal model was constructed by the following steps. The mice were anesthetized with isoflurane, and fixed. The hair on the right hind limb of the mice was shaved and the skin was disinfected with alcohol, and the skin of the joints was cut. Under an optical microscope, the inside of the right knee joint was incised longitudinally with a blade, without cutting the patellar ligament. The patellar ligament was pulled to one side with constant hemostasis by compression with sterile cotton swabs such that the joint cavity was fully exposed. Saline was added dropwise in time to avoid the drying up of the joint cavity. The excess muscle tissue was gently separated with a blunt forceps to expose the meniscus ligament. The anterior cruciate ligament was found in the depth of the joint cavity and cut with micro scissor. Then the wound was disinfected with penicillin solution, the muscle was sutured with sterile needle and thread, and the skin tissue was finally sutured. The efficacy of the drug was determined by intra-articular injection administration. At the endpoint of the test, continued pain threshold of the plantar was detected, and the bone joints were stained with safranin fast green."}, "aging skin": {"test_system": "aging skin", "test": "Aging skin in naturally aging mouse model", "format": "in vivo", "conditions": "skin application twice a week, 6 consecutive weeks; aged female mice (22 months old); FIG. 10", "protocol": "In this example, aged female C57bl/6J mice (22 months old) were used. The drug was administered by skin application at twice a week for 6 consecutive weeks."}, "diabetic retinopathy": {"test_system": "diabetic retinopathy", "test": "Mouse model of diabetic retinopathy (STZ), Evans blue penetration", "format": "in vivo", "conditions": "intravitreal (IVT), 1 μL of 200 μM at 8 and 9 weeks after STZ; Evans blue at 10 weeks; FIG. 4", "protocol": "The efficacy of the compounds of the present disclosure was studied in a mouse model of diabetic retinopathy by multiple administrations of streptozotocin (STZ). C57BL/6J mice at 6 to 7 weeks were weighed and their baseline blood glucose was measured (Sino). STZ (Sigma-Aldrich) was injected intraperitoneally into the mice at 55 mg/Kg for five consecutive days. Age-matched controls were injected with buffer only. Blood glucose was measured again one week after the last STZ injection. 1 μL of the test compound (200 μM, a suspension formulated in 0.015% polysorbate 80, 0.2% sodium phosphate, 0.75% sodium chloride, pH 7.2) was injected intravitreally into the STZ-treated diabetic C57BL/6J mice at 8 and 9 weeks after STZ administration. 10 weeks after STZ treatment, the retinal Evans blue penetration assay was performed."}, "Alzheimer's disease": {"test_system": "Alzheimer's disease", "test": "APP×PS1 transgenic mouse model of Alzheimer's disease", "format": "in vivo", "conditions": "intraperitoneal injection, twice a week, 11 consecutive weeks; cerebral cortex; FIG. 8", "protocol": "In this example, the efficacy of the compounds of the present disclosure was tested on Alzheimer's disease in an animal model of Alzheimer's disease. Briefly, a transgenic mouse model of APP×PS1 (purchased from Cyagen Biosciences) was selected and the compound of the present disclosure was administered by intraperitoneal injection for 11 consecutive weeks, twice a week. Alterations in amyloid in the cerebral cortex of the mice were observed."}, "[1]": {"test_system": "wet-age-related macular degeneration (CNV)", "test": "CNV animal model of wet age-related macular degeneration", "format": "in vivo, mice", "conditions": "intravitreal (IVT); laser CNV model; FIG. 5", "protocol": "In this example, the efficacy of the compounds of the present disclosure was tested on wet-age-related macular degeneration in a CNV animal model.\nMale mice were administered 0.5% probacaine hydrochloride (Alcon) for local anesthesia, and 1% tropicamide to dilate the pupils of the mice. Laser cauterization was performed using a laser photocoagulator (Novus Varia, LUMENIS) with a slit lamp delivery system. And artificially torn adherent glass coverslips were used as contact lenses. Bleeding spots caused by laser were not included in the statistical data."}, "[2]": {"test_system": "idiopathic pulmonary fibrosis", "test": "Bleomycin idiopathic pulmonary fibrosis animal model", "format": "in vivo, SD rats", "conditions": "intraperitoneal (IP) 5 mg/kg, 3 consecutive weeks from day 7; Day 28; FIG. 6", "protocol": "In this example, the efficacy of the compounds of the present disclosure was tested on idiopathic pulmonary fibrosis in an idiopathic pulmonary fibrosis animal model. Briefly, anesthetized 6-week-old SD rats were fixed on a foam board with medical tape. Firstly, the skin on the surface of the trachea was cut with surgical scissors to fully expose the trachea, and a 100-microlitre micro-syringe containing a certain volume of bleomycin (BLM 5 mg/kg) solution drawn based on the body weight of the rat was inserted into the trachea through the oral cavity to administer by slow bolus injection. After administration of the BLM solution, the foam plate was immediately rotated and shaken to distribute the BLM solution as evenly as possible in the lung tissue. Then the skin on the surface of the trachea was sutured with surgical sutures and about 0.5 to 1.0 mL of penicillin solution was dripped onto the epidermis to prevent infection of the surgical wound. After the 7th day of modelling, the compound solution of the present disclosure was administered via intraperitoneal (IP) injection (5 mg/kg) according to the weight of the rat for 3 consecutive weeks. Rats were euthanized by carbon dioxide at Day 28, the lung tissues were removed, the left alveolar lavage fluid was collected for white blood cell (WBC) counting, the right lung tissue portion was used for hydroxyproline (HYP) assay, and the remaining lung tissues were stained for pathology by H&E staining and Masson staining."}, "[3]": {"test_system": "normal and senescent A549 cells", "test": "Senescent cell clearance index (senolytic index)", "format": "cell-based, human", "conditions": "higher index = greater specificity", "protocol": "In this example, human non-small cell lung cancer cell line (A549 cells), human embryonic lung fibroblast cell line (IMR90 cells), human retinal pigment epithelial cells (RPE cells), mouse chondrocytes, and mouse skin fibroblasts were selected. The cells above were induced to obtain senescent cells by etoposide (10 μM). The effect of the target compounds RZ001-RZ006 and RZ201 on the viability of normal and senescent cells above was detected, thereby evaluating the specific killing effect of the prodrugs RZ001-RZ006 and RZ201 on senescent cells above.\nBriefly, senescent and normal cells above were selected and plated separately (96-well plates). After adding the compounds RZ001-RZ006 and RZ201 (concentration: 1 μM) for 72 hours, CellTiter-Glo® Luminescent Cell Viability Assay Kit (Promega) was used to detect cell viability, and the results were shown in FIGS. 2A to 2E.\nFurthermore, the senescent cell clearance index (senolytic index) was also calculated for both normal and senescent A549 cells, as shown in Table 4. A higher index indicates greater specificity in eliminating senescent cells and better safety."}, "hepatic fibrosis": {"test_system": "hepatic fibrosis", "test": "CCl4 mouse model of hepatic fibrosis", "format": "in vivo, mice", "conditions": "intraperitoneal (IP) injection twice a week from third week of modelling; FIG. 9", "protocol": "In this example, the efficacy of the compounds of the present disclosure was tested on hepatic fibrosis in an animal model of hepatic fibrosis. Briefly, C57BL/6N mice, male, 7 to 8 weeks old, 24 to 28 g of body weight, were used. The mouse model of hepatic fibrosis was induced by intraperitoneal injection of CCl4 solution at a dosage of 1 mL/kg, with a dosing frequency of 2 times/week, and a modelling cycle of 6 weeks. Dosing via intraperitoneal injection was started from the third week of modelling twice a week. At the end of the test, serum was collected, and liver tissue was taken for Masson staining index assay."}}}
{"smiles": "Cc1c(-c2ccc(N3CCc4cccc(C(=O)Nc5nc6ccccc6s5)c4C3)nc2C(=O)OCOC(=O)C(C)C)cnn1CC12CC3CC(CC(C3)C1)C2", "note": "[RZ001]", "values": [{"measurement": "pathology scores of safranin fast green staining", "setting": "osteoarthritis", "value": "statistically significant improvements"}, {"measurement": "plantar mechanical pain threshold", "setting": "osteoarthritis", "value": "statistically significant improvements"}, {"measurement": "epidermal thickness scores of the skin", "setting": "aging skin", "value": "statistically significant improvements"}, {"measurement": "vascular permeability in both the retinal and choroidal vascular leakage", "setting": "diabetic retinopathy", "value": "improved vascular permeability"}, {"measurement": "Aβ42 pathogenic protein indicators", "setting": "Alzheimer's disease", "value": "statistically significant improvements"}, {"measurement": "fluorescence intensity indicators", "setting": "[1]", "value": "statistically significant improvements"}, {"measurement": "HYP (hydroxyproline, lung tissue)", "setting": "[2]", "value": "statistically significant improvements"}, {"measurement": "WBC (white blood cell count, alveolar lavage fluid)", "setting": "[2]", "value": "statistically significant improvements"}, {"measurement": "pathology scores (H&E and Masson staining, lung)", "setting": "[2]", "value": "statistically significant improvements"}, {"measurement": "senescent cell clearance index (Senolytic Index)", "setting": "[3]", "value": "A (A represents more than 200)"}, {"measurement": "pathology scores (liver, Masson staining)", "setting": "hepatic fibrosis", "value": "statistically significant improvements"}, {"measurement": "serum alanine aminotransferase (ALT) levels", "setting": "hepatic fibrosis", "value": "statistically significant improvements"}, {"measurement": "serum aspartate aminotransferase (AST) levels", "setting": "hepatic fibrosis", "value": "statistically significant improvements"}]}
{"smiles": "Cc1oc(=O)oc1COC(=O)c1nc(N2CCc3cccc(C(=O)Nc4nc5ccccc5s4)c3C2)ccc1-c1cnn(CC23CC4CC(CC(C4)C2)C3)c1C", "note": "[RZ201]", "values": [{"measurement": "pathology scores of safranin fast green staining", "setting": "osteoarthritis", "value": "statistically significant improvements"}, {"measurement": "plantar mechanical pain threshold", "setting": "osteoarthritis", "value": "statistically significant improvements"}, {"measurement": "epidermal thickness scores of the skin", "setting": "aging skin", "value": "statistically significant improvements"}, {"measurement": "vascular permeability in both the retinal and choroidal vascular leakage", "setting": "diabetic retinopathy", "value": "improved vascular permeability"}, {"measurement": "Aβ42 pathogenic protein indicators", "setting": "Alzheimer's disease", "value": "statistically significant improvements"}, {"measurement": "fluorescence intensity indicators", "setting": "[1]", "value": "statistically significant improvements"}, {"measurement": "HYP (hydroxyproline, lung tissue)", "setting": "[2]", "value": "statistically significant improvements"}, {"measurement": "WBC (white blood cell count, alveolar lavage fluid)", "setting": "[2]", "value": "statistically significant improvements"}, {"measurement": "pathology scores (H&E and Masson staining, lung)", "setting": "[2]", "value": "statistically significant improvements"}, {"measurement": "senescent cell clearance index (Senolytic Index)", "setting": "[3]", "value": "A (A represents more than 200)"}, {"measurement": "pathology scores (liver, Masson staining)", "setting": "hepatic fibrosis", "value": "statistically significant improvements"}, {"measurement": "serum alanine aminotransferase (ALT) levels", "setting": "hepatic fibrosis", "value": "statistically significant improvements"}, {"measurement": "serum aspartate aminotransferase (AST) levels", "setting": "hepatic fibrosis", "value": "statistically significant improvements"}]}
